Data published in patent publication US20250002470A1, “NITROGEN-CONTAINING COMPOUND, PREPARATION METHOD THEREFOR AND APPLICATION THEREOF” (ZHEJIANG AIXPLORER BIOTECH CO., LTD., priority 2021, published 2025).
pIC50: −log10 of the molar value.

Biological target: hERG potassium channel (Homo sapiens, UniProt Q12809)
Assay: Whole-cell patch-clamp (QPatch) of hERG current in HEK293 cells stably expressing hERG
Assay type: cell-based
Method: In this study, a whole-cell patch-clamp technique was used to study the inhibitory effect of compounds on hERG potassium channels and to evaluate the risk of ventricular repolarization toxicity.
The HEK293 cell line stably expressing the hERG potassium channel cells was purchased from Creacell, Inc. (Cat. No. A-0320).
The HEK293 cell line that can stably express the hERG potassium channel, was cultured in DMEM medium containing 10% fetal bovine serum and 0.8 mg/mL G418 at 37° C. and 5% carbon dioxide.
Before the test, the cells were separated with TrypLET Express, centrifuged after adding medium to terminate digestion, resuspended the cell count, adjusted the cell density to 2-3×10^6 cells/mL, and then lightly mixed the cells on a room temperature equilibration shaker for 15-20 min.
Electrophysiological assays were performed using a fully automated patch-clamp QPatch 48 X (Sophion) device. The prepared cells were placed on a centrifuge on the Qpatch bench, the cells were washed using multiple centrifugation/suspension methods, and the cell culture medium was replaced with extracellular fluid. Remove an MTP-96 plate and place it in the location of the MTP source. Remove the QPlate chip and subsequently place the QPlate at the Qplate source location. The robotic arm scans the MTP-96 board and the QPlate chip barcode and grabs it to the measuring station. Draw the intracellular and external fluid from the liquid pool and add them to the intracellular fluid pool, cell and test cell pool of the QPlate chip, respectively. At the measuring station, all measuring sites on the QPlate undergo initial quality control. The quality control process includes aspirating the cell suspension from the cell vessel of the centrifuge and positioning the cells to the chip wells via a pressure controller to establish a high-resistance seal and create a whole-cell recording pattern.
The voltage stimulation protocol for whole-cell patch-clamp recording of whole-cell hERG potassium currents is as follows: the cell membrane voltage clamps at −80 mV when a whole-cell closure is formed. The clamping voltage is depolarized from −80 mV to −50 mV for 0.5 s (as a leakage current detection), then steps to 30 mV for 2.5 s, and then quickly recovers to −50 mV for 4 s to excite the tail current of the hERG channel. The data were collected repeatedly every 10 s to observe the effect of the drug on the hERG tail current. −50 mV stimulation at 0.5 s was used as the leakage current detection. The test data is collected by Qpatch and stored in the connected service station.
First, the current after the effect of each drug concentration and the blank control current are normalized 0, and then the inhibition rate corresponding to each drug concentration is calculated.
Calculate the mean and standard error for each concentration and calculate the semi-inhibitory concentration for each compound using the following Formula:
Y=Bottom+(Top−Bottom)/(1+10^((LogIC50−X)*HillSlope)) The above Formula was used to fit the dose-dependent effect nonlinearly, where C represents the test substance concentration, IC50 is the semi-inhibitory concentration, and h represents the Hill coefficient. Curve fitting and IC50 calculations were performed using Graphpad software.

Sequence of hERG potassium channel (Q12809 whole entry): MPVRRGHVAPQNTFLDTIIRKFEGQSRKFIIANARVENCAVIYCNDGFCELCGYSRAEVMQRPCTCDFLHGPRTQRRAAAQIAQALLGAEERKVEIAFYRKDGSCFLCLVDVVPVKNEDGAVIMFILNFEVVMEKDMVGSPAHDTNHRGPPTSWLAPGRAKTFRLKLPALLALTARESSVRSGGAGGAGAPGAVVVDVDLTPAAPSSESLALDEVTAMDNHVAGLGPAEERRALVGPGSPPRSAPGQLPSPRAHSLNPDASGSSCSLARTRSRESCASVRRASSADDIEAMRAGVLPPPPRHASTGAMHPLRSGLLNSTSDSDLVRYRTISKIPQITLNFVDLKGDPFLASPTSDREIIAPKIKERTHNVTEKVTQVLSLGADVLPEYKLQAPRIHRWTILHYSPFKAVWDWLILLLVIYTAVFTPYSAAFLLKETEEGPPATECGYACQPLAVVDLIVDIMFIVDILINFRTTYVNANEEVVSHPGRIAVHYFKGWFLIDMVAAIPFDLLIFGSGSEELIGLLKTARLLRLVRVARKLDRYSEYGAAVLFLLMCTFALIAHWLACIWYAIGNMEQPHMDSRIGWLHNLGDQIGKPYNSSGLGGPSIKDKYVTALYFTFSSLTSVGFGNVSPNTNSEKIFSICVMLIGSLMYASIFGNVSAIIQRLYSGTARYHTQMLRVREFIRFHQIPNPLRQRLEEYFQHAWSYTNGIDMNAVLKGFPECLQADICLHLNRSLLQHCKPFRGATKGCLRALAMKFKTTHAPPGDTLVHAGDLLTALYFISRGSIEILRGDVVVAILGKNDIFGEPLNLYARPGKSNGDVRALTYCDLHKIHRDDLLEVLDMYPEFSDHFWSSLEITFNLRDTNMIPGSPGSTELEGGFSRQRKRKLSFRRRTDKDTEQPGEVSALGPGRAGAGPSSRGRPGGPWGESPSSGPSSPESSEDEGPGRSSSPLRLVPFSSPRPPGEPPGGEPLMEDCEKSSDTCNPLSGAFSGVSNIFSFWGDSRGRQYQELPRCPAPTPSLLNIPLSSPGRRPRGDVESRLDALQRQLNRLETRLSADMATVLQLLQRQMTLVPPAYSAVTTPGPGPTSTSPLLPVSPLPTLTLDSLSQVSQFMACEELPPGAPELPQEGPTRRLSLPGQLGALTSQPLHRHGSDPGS

Cc1nc(N[C@@H]2CCCC[C@H]2O)nnc1-c1ccc(C(F)(F)F)cc1O [Embodiment 33]
pIC50: < 4.52
